Patent US6833372B2, “Non-peptide GnRH agents, Pharmaceutical compositions, and methods for their use” (Pfizer, Inc., priority 2002, dated 2004)
Converted amounts (≈) assume the structure as drawn. Where two headings read alike, the source gives them in different places.

Tests used:
rat GnRH receptor = biological target: T1, rat GnRH receptor (Rattus norvegicus, UniProt P30969); assay: Radioligand binding: inhibition of 125I-GnRH-A binding to rat GnRH receptor (rat pituitary membranes); details: read-out: Ki (nM), Inhibition Binding of 125I-GnRH-A to GnRH Receptors
T1 construct: or rat pituitaries (Pel Freez Biologicals, Rogers, Ark.) were homogenized; tissue Pel Freez Biologicals; host or cells: rat pituitaries (membrane preparation)
T1 sequence (P30969 1-327): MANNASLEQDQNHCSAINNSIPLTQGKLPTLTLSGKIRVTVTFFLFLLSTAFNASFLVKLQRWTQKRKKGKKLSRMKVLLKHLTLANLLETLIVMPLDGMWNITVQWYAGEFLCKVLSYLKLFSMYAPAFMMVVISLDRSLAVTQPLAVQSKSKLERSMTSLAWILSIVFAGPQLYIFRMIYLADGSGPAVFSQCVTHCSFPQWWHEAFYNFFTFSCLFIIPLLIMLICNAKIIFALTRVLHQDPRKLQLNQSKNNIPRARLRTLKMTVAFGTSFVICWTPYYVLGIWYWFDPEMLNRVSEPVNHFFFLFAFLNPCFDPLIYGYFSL
Summary of the method: (§1)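 Membranes from rat pituitaries, or HEK 293 cells stably expressing mouse or human receptor, incubated 1 hour at room temperature with ~0.04-0.06 nM radioligand (HEPES pH 7.4, EDTA, MgCl2, BSA) and competitor at 0.1-10,000 nM. Bound ligand collected by GF/C filtration and counted; Ki derived from IC50 by Cheng-Prusoff.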

[1] = In vitro metabolism: disappearance of parent compound in monkey liver microsomes; format: in vitro ADME; details: 5 uM compound, 30 minutes 37° C.
Experimental: (§2) Human, rat, dog, and monkey liver microsomes were isolated by differential centrifugation. Specimens of human liver were obtained from the International Institute for the Advancement of Medicine (Scranton, Pa.). The disappearance of the parent compound was studied in a mixture containing 5 uM compound, 0.5 mg/ml microsomal protein, and 2 mM NADPH in 50 mM K phosphate buffer, pH 7.4. Samples were incubated for 30 minutes at 37° C. The reaction was terminated by the addition of acetonitrile and compounds analyzed by LC-MS as described above.

human GnRH receptors = biological target: T2, human GnRH receptors (Homo sapiens, UniProt P30968); assay: Radioligand binding: inhibition of 125I-GnRH-A binding to human GnRH receptor membranes; details: HEK 293 cell membranes
T2 construct: expressed in transfected cells; host or cells: HEK 293 cells, stably transfected; membranes
T2 sequence (P30968 1-328): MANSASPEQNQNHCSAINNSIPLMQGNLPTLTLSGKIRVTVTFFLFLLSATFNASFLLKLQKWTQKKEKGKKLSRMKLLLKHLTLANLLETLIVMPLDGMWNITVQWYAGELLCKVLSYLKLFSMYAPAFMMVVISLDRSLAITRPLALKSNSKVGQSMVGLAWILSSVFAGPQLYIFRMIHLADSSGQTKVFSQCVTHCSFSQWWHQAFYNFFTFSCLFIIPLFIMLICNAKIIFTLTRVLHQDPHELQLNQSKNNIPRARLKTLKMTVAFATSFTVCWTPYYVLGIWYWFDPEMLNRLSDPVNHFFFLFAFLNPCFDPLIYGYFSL
Summary of the method: as §1

[2] = In vitro metabolism: disappearance of parent compound in rat liver microsomes (male, female); format: in vitro ADME; details: 5 uM compound, 30 minutes 37° C.; for Fem. Rat (FR) % rem. 30′: female rat liver microsomes; for Male Rat (MR) % rem. 30′: male rat liver microsomes
Experimental: as §2

[3] = In vitro metabolism: disappearance of parent compound in human liver microsomes; format: in vitro ADME; details: 5 uM compound, 0.5 mg/ml protein, 2 mM NADPH, 30 minutes 37° C.
Experimental: as §2

[4] = In vitro metabolism: disappearance of parent compound in dog liver microsomes; format: in vitro ADME; details: 5 uM compound, 30 minutes 37° C.
Experimental: as §2

[5] = Solubility at pH2 and pH6; format: physicochemical
Rat plasma % remain = format: in vitro ADME
[6] = Pharmacokinetics in rats (jugular vein cannula, plasma LC-MS); format: in vivo, Rat; details: female rat, 10 mg/kg as 5 mg/ml solution in 10% DMSO, 10% cremophor, 80% saline (footnote 5), 10 mg/kg; for Cmax: read-out: FR Cmax
Experimental: Rats (male or female, 200-225 g) were prepared with indwelling jugular vein cannula as described by Harms et al., Applied Physiol. 36:391-398 (1974), and allowed to recover overnight with free access to the standard vivarium chow and water. […] […] The blood samples were withdrawn at specific times, plasma was immediately separated and compound extracted with ethyl acetate. The samples were analyzed by LC-MS using 30-90% gradient of ACN in 50 mM ammonium acetate.
The pharmacokinetic parameters were calculated using WinNonlin software (Scientific Consulting Inc.). The bioavailability was calculated as AUCp.o./AUCi.v., where AUCp.o. and AUC i.v. are areas under the plasma concentration-time curve after oral and i.v. administration, respectively.

[7] = pH 6, aqueous buffer, pH6, read-out: Solubility μg/ml pH6

Row | Compound | Ki (rat GnRH receptor) [nM] | Monkey % rem. [1] [%] | Ki (human GnRH receptors) [nM] | Fem. Rat (FR) % rem. 30′ [2] [%] | Male Rat (MR) % rem. 30′ [2] [%] | Human % rem. 30′ [3] [%] | Dog % rem. 30′ [4] [%] | solubility [5, 7] [µg/mL] | Rat plasma % remain (Rat plasma % remain) [%] | FR T1/2 hr [6] [h] | Cmax [6] [nM] | Cmax ([6]; female, rat, plasma, po) [nM] | half-life ([6]; female, rat, plasma, po, read-out: FR T1/2 hr (converted)) [h] | solubility ([5]; pH 2, simulated gastric fluid, pH2, read-out: Solubility μg/ml pH2) [µg/mL]
1 | COc1nc(NCCCN2CCOCC2)nc(OC)c1NC(=O)c1ccc(Cc2cc3c(cc2C)C(C)(C)CCC3(C)C)o1 [Example B4, 5-(3,5,5,8,8-Pentamethyl-5,6,7,8-tetrahydro-naphthalen-2-ylmethyl)-furan-2-carboxylic Acid [4,6-dimethoxy-2-(3-morpholin-4-yl-propylamino)-pyrimidin-5-yl]-amide] | 0.4 | 0 | 0.5 | 100 | 38 | 38 | 26 | 2.5 (≈ 4.13 µM) | – | – | – | – | – | –
2 | COc1nc(NCCCN2CCOCC2)nc(OC)c1NC(=O)c1ccc(Cc2cc3c(cc2C)C(C)(C)OC3(C)C)o1 [Example D3, 5-(1,1,3,3,6-Pentamethyl-1,3-dihydro-isobenzofuran-5-ylmethyl)-furan-2-carboxylic Acid [4,6-dimethoxy-2-(3-morpholin-4-yl-propylamino)-pyrimidin-5-yl]-amide] | 0.4 | – | 24.5 | – | 22 | – | – | – | 100 | 2.3 | 200 | 400 | 1.6 | –
3 | COc1nc(NCCNCCN)nc(OC)c1NC(=O)c1ccc(Cc2cc3c(cc2C)C(C)(C)OC3(C)C)o1 [Example D12, N-[2-({2-[(2-aminoethyl)amino]ethyl}amino)-4,6-dimethoxypyrimidin-5-yl]-5-[(1,1,3,3,6-pentamethyl-1,3-dihydro-2-benzofuran-5-yl)methyl]-2-furamide] | 0.8 | 37 | 1.2 | 80 | 54 | 81 | 59 | > 30 | – | – | – | – | – | > 30
4 | COc1nc(NCCN2CCNCC2)nc(OC)c1NC(=O)c1ccc(Cc2cc3c(cc2C)C(C)(C)OC3(C)C)o1 [Example D14, N-{4,6-Dimethoxy-2-[(2-piperazin-1-ylethyl)amino]-pyrimidin-5-yl}-5-[(1,1,3,3,6-pentamethyl-1,3-dihydro-2-benzofuran-5-yl)methyl]-2-furamide] | 0.4 | 63 | 3.5 | 90 | 78 | 86 | 98 | – | – | – | – | – | – | –
5 | COc1nc(N(CCCN)CCCN)nc(OC)c1NC(=O)c1ccc(Cc2cc3c(cc2C)C(C)(C)OC3(C)C)o1 [Example D16, N-{2-[Bis(3-aminopropyl)amino]-4,6-dimethoxypyrimidin-5-yl}-5-[(1,1,3,3,6-pentamethyl-1,3-dihydro-2-benzofuran-5-yl)methyl]-2-furamide] | 1.1 | 66 | 6.5 | 95 | 34 | 76 | 97 | – | – | – | – | – | – | –
6 | COc1nc(NCCCN2CCN(CCCN)CC2)nc(OC)c1NC(=O)c1ccc(Cc2cc3c(cc2C)C(C)(C)OC3(C)C)o1 [Example D18, N-[2-({3-[4-(3-Aminopropyl)piperazin-1-yl]propyl}amino)-4,6-dimethoxypyrimidin-5-yl}-5-[(1,1,3,3,6-pentamethyl-1,3-dihydro-2-benzofuran-5-yl)methyl]-2-furamide] | 0.3 | 80 | 0.97 | 97 | 74 | 82 | 84 | – | – | – | – | – | – | –
7 | COc1nc(N(CCCN2CCCCC2)CCCN2CCCCC2)nc(OC)c1NC(=O)c1ccc(Cc2cc3c(cc2C)C(C)(C)OC3(C)C)o1 [Example D21, N-{2-[Bis(3-piperidin-1-ylpropyl)amino]-4,6-dimethoxypyrimidin-5-yl}-5-[(1,1,3,3,6-pentamethyl-1,3-dihydro-2-benzofuran-5-yl)methyl]-2-furamide] | 1.3 | 85 | 3.3 | 89 | 87 | 89 | 67 | – | – | – | – | – | – | –
8 | COc1nc(NCCCN2CCCCC2)nc(OC)c1NC(=O)c1ccc(Cc2cc3c(cc2C)C(C)(C)OC3(C)C)o1 [Example D22, N-(4,6-Dimethoxy-2-{[3-piperidin-1-ylpropyl)amino]-pyrimidin-5-yl}-5-[(1,1,3,3,6-pentamethyl-1,3-dihydro-2-benzofuran-5-yl)methyl]-2-furamide] | 0.3 | 5 | 0.96 | 94 | 69 | 66 | 87 | – | – | – | – | – | – | –

Other lines, results leading:

Row | Ki (rat GnRH receptor) [nM] | Monkey % rem. [1] [%] | Ki (human GnRH receptors) [nM] | Fem. Rat (FR) % rem. 30′ [2] [%] | Male Rat (MR) % rem. 30′ [2] [%] | Human % rem. 30′ [3] [%] | Dog % rem. 30′ [4] [%] | solubility [5, 7] [µg/mL] | Rat plasma % remain (Rat plasma % remain) [%] | FR T1/2 hr [6] [h] | Cmax [6] [nM] | Cmax ([6]; female, rat, plasma, po) [nM] | half-life ([6]; female, rat, plasma, po, read-out: FR T1/2 hr (converted)) [h] | solubility ([5]; pH 2, simulated gastric fluid, pH2, read-out: Solubility μg/ml pH2) [µg/mL] | Compound
9 | 7 | 0 | 3.4 | 76 | 12 | 48 | 28 | 2 (≈ 3.92 µM) | – | – | – | – | – | – | COCCOc1nc(OC)c(NC(=O)c2ccc(Cc3cc4c(cc3C)CCCC4(C)C)o2)c(OC)n1 [Example E1, 5-(3,8,8-Trimethyl-5,6,7,8-tetrahydro-naphthalen-2-ylmethyl)-furan-2-carboxylic acid [4,6-dimethoxy-2-(2-methoxy-ethoxy)-pyrimidin-5-yl]-amide]
10 | 0.35 | 0 | 0.91 | 81 | 36 | 39 | 31 | 12 (≈ 20.8 µM) | – | – | – | – | – | – | COc1nc(NCCCN2CCOCC2)nc(OC)c1NC(=O)c1ccc(Cc2cc3c(cc2C)CCCC3(C)C)o1 [Example F1, 5-(3,8,8-Trimethyl-5,6,7,8-tetrahydro-naphthalen-2-ylmethyl)-furan-2-carboxylic acid [4,6-dimethoxy-2-(3-morpholin-4-yl-propylamino)-pyrimidin-5-yl]-amide]
11 | 1.7 | 2 | 1.3 | 100 | 74 | 70 | 85 | – | 100 | – | – | – | – | – | COc1nc(NCCC#N)nc(OC)c1NC(=O)c1ccc(Cc2cc3c(cc2C)CCCC3(C)C)o1 [Example F2, 5-(3,8,8-Trimethyl-5,6,7,8-tetrahydro-naphthalen-2-ylmethyl)-furan-2-carboxylic acid [2-(2-cyano-ethylamino)-4,6-dimethoxy-pyrimidin-5-yl]-amide]
